In patent US6159733A, “Method for photoinactivating malignant cells” (priority 1996, dated 2000):
“Also recorded” adds a separate entry of the source. Read-outs that look alike come from different tables or passages of the source.

Tests used:
viruses = conditions: blood products; cited from earlier work
V79 = conditions: cited from earlier work
BFU-E = conditions: 15 nM Pc 4, 5×10^6 cells/mL, 8 J/cm^2; cited from earlier work
pluripotent stem cells = experiment: Photosensitivity of pluripotent stem cells, cobblestone area forming cell (CAFC) assay; type: cell-based, murine
Source text: (§1) Animals. C57B1/6 (Ly-5.2) and B6SJ-cd45 ^b pep 3^b /BOY J (Ly-5.1), were obtained from The Jackson Laboratories (Bar Harbor, Me.) and were maintained in the animal facility of the New York Blood Center. After gamma-irradiation, the animals were housed in microisolator cages and provided with autoclaved food and autoclaved acidified water (pH=3) ad libitum. Preparation of bone marrow cell suspensions--Ly-5.1 mice were used as the source of donor BM. Mice (8-10 weeks old) were killed and the BM was harvested by flushing the femoral shafts with Hank's balanced salt solution (HBSS), pH 7.4. The cell suspensions were centrifuged, washed once and the cells were finally resuspended in HBSS--10% vol/vol fetal bovine serum (FBS, Gemini Bioproducts Inc., Calabasas, Calif.).
(§2) Photosensitization. Aliquots of a 1.87 mM Pc 4 (kindly provided by Dr. M. E. Kenney) stock solution in dimethyl sulfoxide were kept at -80° C. in autoclaved brown glass vials. Immediately prior to the photosensitization, Pc4 was thawed and diluted in dimethyl formamide to yield a 10 μM working solution. […] Pc 4 was used at 15 nM throughout the experiments.
(§3) BM and cell line samples, were incubated with 15 nM Pc 4 for two hours at 37° C. at cell concentrations of 1.5×10^7 cells/mL. Aliquots of 1.5 mL were transferred to 24-well plates; separate plates were used for each sample.
(§4) In a second set of experiments, the cells were incubated with 15 nM Pc 4 at cell concentrations of 1.5×10^6 cells/mL. Prior to photoirradiation, the samples were centrifuged and the supernatants were aspirated and set aside. The cell concentrations were adjusted to 1.5×10^7 cells/mL by adding back an appropriate volume of the Pc 4 containing aspirates.
(§5) Photoinactivation. The light source used was a filtered xenon short arc lamp (Versa-Light, Model UV-R6G, Medic Lightech, Ltd., Haifa, Israel). It was used to deliver red light (λ 600-700 nm) to the sensitized cells. After a 20 minute warm up period of the instrument, the distance from the light source to the bottom of the 24-well plate was adjusted to obtain a fluence rate of 26.6 mW/cm^2, as measured with a radiometer (Model IL 1350, International Light, Newburyport, Mass.). Samples were placed under the light source and were stirred during the irradiations. Before and after the irradiations, samples were kept in the dark.
(§6) Cobblestone area forming cell assay. FBMD-1 stromal cells (gift from Dr. Ploemacher) were cultured at 33° C. in a humidified 5% CO2 -incubator in DMEM supplemented with 3.5 mM HEPES, 2 mM glutaMax (GibcoBRL), 10^-7 M sodium selenite, 10^-4 M β-mercaptoethanol, 10% vol/vol fetal calf serum (Gemini Bioproducts, Inc.), 5% vol/vol horse serum and 10^-5 M hydrocortisone 21-hemisuccinate (Breems, D. A., et al. Leukemia 8:1095 (1994); Van der Loo, J. C. M., et al. Blood 85:2598 (1995)). Prior to each experiment, FBMD-1 cells were harvested from log-phase cultures and fresh layers were prepared by seeding 1,000 cells into individual wells of 96-well flat bottom plates. These plates had been incubated overnight with 0.2% (wt/vol) gelatin to improve adherence of the stromal layer. The outer wells of the plates were filled with 100 μL 0.1 N NaOH to reduce infection.
(§7) The FBDM-1 layers were overlaid with the bone marrow samples in a limiting dilution setup; the first wells receiving 180,000-300,000 cells (Breems, D. A., et al., supra). Ten dilutions 2-fold apart were used for each sample with 18 replicate wells per dilution. The cells were cultured at 33° C. in a humidified 5% CO2 -incubator. For each sample, the fraction of wells with at least one phase-dark hematopoietic clone of at least five cells (cobblestone area) was determined weekly and cobblestone area forming cell frequencies (CAFC) were calculated using the dedicated Poison statistics program LimDil (kindly provided by Dr. Jan Hendrikx). After counting, 100 μL medium was removed from the wells and replaced with 100 μL fresh medium.
(§8) Statistics. […]

[1] = as above; type: cell-based, murine; conditions: mouse, bone marrow stem cells, 15 nM
Source text: as §1, §2, §3, §4, §5, §6, §7, §8

[2] = tested on: pluripotent stem cells (Ly-5.1 donor BM in Ly-5.2 mice); experiment: Bone marrow transplantation and chimerism assay; type: in vivo; conditions: for mice died two months after transplant: sub-lethally irradiated
Source text: as §1, §2, §3, §5
Bone marrow transplantation and chimerism assay. Two month old Ly-5.2 mice were used as recipients in the BM reconstitution assays. […] The irradiated recipient Ly-5.2 mice were divided into six groups. The mice in these groups received either HBSS, untreated control bone marrow, or Pc 4-sensitized BM that was photoirradiated with 0, 6, 12 or 18 J/cm^2, respectively. Each mouse received 250,000 donor BM cells.
Six months after transplantation, peripheral blood was obtained by tail-vein puncture and 40 μL samples were aliquoted into tubes that contained the following antibody cocktails. The first tube contained 4 μL of phycoerythrin (PE) conjugated anti-Ly-5.1 antibody (CD45.1, kind gift from Dr. JoseCarlos Segovia) and 1 μL of fluorescein (FITC) conjugated anti-B220 antibody (B cells; Pharmingen, San Diego, Calif.), the second tube contained 4 μL anti-Ly-5.1^PE and 1 μL of anti-CD3^FITC (T cells; Pharmingen), and the third tube contained 4 μL anti-Ly-5.1^PE and 1 μL of anti-Gr-1^FITC (granulocytes; Pharmingen). Following a 20 minute incubation at room temperature, 2 mL of FACS Lysing Solution (Becton Dickinson (BD), San Jose, Calif.) was added to each sample followed by gentle mixing. After 10 minutes the samples were centrifuged and the pellets were resuspended in 3 mL PBS. After centrifugation, the washed pellets were resuspended in 2% vol/vol formalin--PBS pH 7.4 and the samples were analyzed by flow cytometry within 3 hours after staining.

parasites = conditions: blood products; cited from earlier work

For CN(C)CCC[Si](C)(C)O[Si]1(O)n2c3c4ccccc4c2N=C2N=C(N=c4c5ccccc5c(n41)=NC1=NC(=N3)c3ccccc31)c1ccccc12 (stereo not shown) [Pc 4, hydroxysiloxy-dimethylpropyl-N-dimethyl silicon phthalocyanine], the photoinactivation of viruses (viruses) is listed as “effectively photoinactivate”, the “photoinactivation of V79 cells” value (V79) is listed as “effectively photoinactivate” and the “surviving fraction of human cells” value (BFU-E) is listed as 0.9. The “relative CAFC day 28 frequency” value (pluripotent stem cells; 15 nM, 1.5×10^6 cells/mL, 3 J/cm^2, two values, 40320 min, 0.015 µM) was under 0.014, the “CAFC frequency compared with untreated samples” value (pluripotent stem cells; 15 nM, 1.5×10^7 cells/mL, 6 J/cm^2 (p=0.58)) was “not significantly lower” and the “CAFC frequency compared with untreated samples” value (pluripotent stem cells; 15 nM, 1.5×10^7 cells/mL, 12 J/cm^2 (p=0.40)) was “not significantly lower”. The “CAFC frequency compared with untreated samples” value (pluripotent stem cells; 15 nM, 1.5×10^7 cells/mL, 18 J/cm^2 (p=0.26)) was “not significantly lower”, the “relative CAFC frequency on day 28” value (pluripotent stem cells; 15 nM, 1.5×10^7 cells/mL, 18 J/cm^2, two assays (p=0.69, p=0.78), 40320 min, 0.015 µM) was 0.92 and the “effect on CAFC frequencies / pluripotent stem cells” value (pluripotent stem cells; 15 nM, 1.5×10^7 cells/mL, after irradiation) was “not affected after irradiation; also recorded: not damaged”. The “photoinactivation of the stem cells (CAFC)” value (pluripotent stem cells; 1.5×10^6 cells/mL) was “approximately 2 log10”, the “comparison with MC 540” value (pluripotent stem cells; 1.5×10^7 cells/mL, vs Sieber (1987)) was “compared favorable to MC 540” and the “sensitivity of c-kit^+,Sca-1^+ BM fraction to photoinactivation” value (pluripotent stem cells; relative to other cell types) was “least sensitive”. The viability at 672 h, 0.015 µM ([1]; 1.5×10^6 cells/mL, 3 J/cm^2, two values, read-out: relative CAFC day 28 frequency) was 1.8%, the viability at 672 h, 0.015 µM ([1]; 1.5×10^7 cells/mL, 18 J/cm^2, two assays (p=0.69, p=0.78), read-out: relative CAFC frequency on day 28) was 91% and the “long term repopulating (LTR) ability / survival of the pluripotent stem cells” value ([2]; 1.5×10^7 cells/mL, 18 J/cm^2) was “not affected by the photoinactivation procedure; also recorded: no adverse affect”. The mortality ([2]; pilot, lethally irradiated (8.5 Gy), 70,000 untreated or treated donor BM cells) was “All mice that received 70,000 cells died within one month”, the “Ly-5.1 chimerism in peripheral blood granulocytes, T cells and B cells” value ([2]; pilot, lethally irradiated (8.5 Gy), 250,000 donor cells (untreated or treated 15 nM, 1.5×10^7 cells/mL, 18 J/cm2), after 4 months, most mice) was over 70% and the “difference in chimerism levels from untreated BM group” value ([2]; six months, 18 J/cm^2) was “not significant”. The “chimerism level, granulocytes” value ([2]; six months, 250,000 BM cells, 18 J/cm^2, untreated BM 0.49±0.01 (p=0.42)) was 0.38±0.08, the “chimerism level, B cells” value ([2]; six months, 250,000 BM cells, 18 J/cm^2, untreated BM 0.50±0.12 (p=0.53)) was 0.39±0.11 and the “chimerism level, T cells” value ([2]; six months, 250,000 BM cells, 18 J/cm^2, untreated BM 0.72±0.07 (p=0.42)) was 0.60±0.12. The “mice died two months after transplant” value ([2]; Pc 4, 0 J/cm^2) was 1/6, the “mice died two months after transplant” value ([2]; Pc 4, 6 J/cm^2) was 1/6 and the “mice died two months after transplant” value ([2]; Pc 4, 18 J/cm^2) was 1/6. For the same molecule, the photoinactivation of parasites (parasites) was “effectively photoinactivate”.
